Test results: ChEMBL document CHEMBL1142393, “Design and characterization of mechanism-based inhibitors for the tyrosine aminomutase SgTAM” (Bioorg Med Chem Lett, 2008)

Experiment: Inhibition of Streptomyces globisporus TAM

SMILES | IC50
COc1ccc([C@H]2O[C@@H]2C(=O)O)cc1 | 3 mM
O=C(O)[C@H]1O[C@@H]1c1ccccc1 | 5.8 mM
N[C@H](c1ccccc1)C(F)(F)C(=O)O | 7.3 mM
O=C(O)[C@H]1O[C@@H]1c1ccc(F)cc1 | 11.6 mM
